From patent US5624961A, “Benzylaminoethoxybenzene derivatives, production thereof and use thereof” (priority 1994, dated 1997) come the findings set out here.

Each structure is given as a SMILES string. Counter-ions that a name gives are not always drawn.

One data set has as its system α1 -adrenoceptor. Description: α1-adrenoceptor blocking effect, preparation from the thoracic aorta of rabbit, Magnus method.
Settings: not given
In kind it is cell-based. Here is the method: Blocking of α1 -adrenoceptor
The α1 -adrenoceptor blocking effect was determined using a preparation from the thoracic aorta of rabbit, according to the Magnus method and expressed as pA2 value.
In the case of `COc1c(C)c(C)c(O)c(C)c1CN(C)CCOc1cc(C)c(O)cc1C(C)C` [Ex. 1, N-(3-hydroxy-6-methoxy-2,4,5-trimethylbenzyl)-N-methyl-2-(4-hydroxy-2-isopropyl-5-methylphenoxy)ethylamine], the pA2 value turned out to be 9.0. In the case of `Cc1cc(OCCN(C)Cc2c(C)c(O)c(C)c(C)c2OCCO)c(C(C)C)cc1O` [Ex. 2, N-{3-hydroxy-6-(2-hydroxyethoxy)-2,4,5-trimethylbenzyl}-N-methyl-2-(4-hydroxy-2-isopropyl-5-methylphenoxy)ethylamine], the pA2 value was 8.1.

`COc1c(C)c(C)c(O)c(C)c1CNCCOc1cc(C)c(NC(C)=O)cc1C(C)C` [Ex. 3, N-(3-hydroxy-6-methoxy-2,4,5-trimethylbenzyl)-2-(4-acetylamino-2-isopropyl-5-methylphenoxy)ethylamine]: the pA2 value is 8.2. For the compound `CCOc1c(C)c(C)c(O)c(C)c1CN(C)CCOc1cc(C)c(O)cc1C(C)C` [Ex. 4, N-(2-ethoxy-5-hydroxy-3,4,6-trimethylbenzyl)-N-methyl-2-(4-hydroxy-2-isopropyl-5-methylphenoxy)ethylamine], the pA2 value is 8.5. As for `CCOc1c(C)c(C)c(OC(C)=O)c(C)c1CN(C)CCOc1cc(C)c(OC(C)=O)cc1C(C)C` [Ex. 5, N-(3-acetoxy-6-ethoxy-2,4,5-trimethylbenzyl)-N-methyl-2-(4-acetoxy-2-isopropyl-5-methylphenoxy)ethylamine], the pA2 value amounted to 8.3.

As to `CCN(CC)CCN(CCOc1cc(C)ccc1C(C)C)Cc1c(C)c(O)c(C)c(C)c1OC` [Ex. 6, N-(2-diethylaminoethyl)-N-(3-hydroxy-6-methoxy-2,4,5-trimethylbenzyl)-2-(2-isopropyl-5-methylphenoxy)ethylamine], the pA2 value is recorded as 7.5. Still for that read-out and setting: for `CCN(CCOc1cc(C)c(Cl)cc1C(C)C)Cc1c(C)c(O)c(C)c(C)c1OC` [Ex. 7, N-ethyl-N-(3-hydroxy-6-methoxy-2,4,5-trimethylbenzyl)-2-(4-chloro-2-isopropyl-5-methylphenoxy)ethylamine] the value was 7.7; for `COc1c(C)c(C)c(OC)c(CN(CCOc2cc(C)ccc2C(C)C)C(C)=O)c1C` [Ex. 8, N-{2-(2-isopropyl-5-methylphenoxy)ethyl}-N-(2,5-dimethoxy-3,4,6-trimethylbenzyl)acetamide], 7.3. Turning to `COc1c(C)c(C)c(O)c(C)c1CN(C)CCOc1cc(C)c(C(C)=O)cc1C(C)C` [Ex. 9, N-(3-hydroxy-6-methoxy-2,4,5-trimethylbenzyl)-N-methyl-2-(4-acetyl-2-isopropyl-5-methylphenoxy)ethylamine], the pA2 value is 7.5.

Take `COc1c(C)c(C)c(OC)c(CN(C)CCOc2cc(C)c(NC(C)=O)cc2C(C)C)c1C` [Ex. 10, N-(2,5-dimethoxy-3,4,6-trimethylbenzyl)-N-methyl-2-(4-acetylamino-2-isopropyl-5-methylphenoxy)ethylamine]: the pA2 value came to 7.4.

As for `COc1c(C)c(C)c(OC)c(CN(C)CCOc2cc(C)c(N)cc2C(C)C)c1C` [Ex. 11, N-(2,5-dimethoxy-3,4,6-trimethylbenzyl)-N-methyl-2-(4-amino-2-isopropyl-5-methylphenoxy)ethylamine], the pA2 value is 8.3. On to `COc1c(C)c(C)c(O)c(C)c1CN(C)CCOc1cc(C)ccc1C(C)C` [Ex. 12, N-(3-hydroxy-6-methoxy-2,4,5-trimethylbenzyl)-N-methyl-2-(2-isopropyl-5-methylphenoxy)ethylamine], for which the pA2 value is listed as 8.1. Turning to `COc1c(C)c(C)c(OC(C)C)c(C)c1CN(C)CCOc1cc(C)ccc1C(C)C` [Ex. 14, N-(3-isopropoxy-6-methoxy-2,4,5-trimethylbenzyl)-N-methyl-2-(2-isopropyl-5-methylphenoxy)ethylamine], the pA2 value is on record as 7.6. Still for that read-out and setting: for `CCOc1c(C)c(C)c(OC)c(CN(C)CCOc2cc(C)ccc2C(C)C)c1C` [Ex. 15, N-(3-ethoxy-6-methoxy-2,4,5-trimethylbenzyl)-N-methyl-2-(2-isopropyl-5-methylphenoxy)ethylamine] the value was 7.5. Compound `Cc1ccc(C(C)C)c(OCCN(C)Cc2c(C)c(O)c(C)c(C)c2OCCO)c1` [Ex. 16, N-{3-hydroxy-6-(2-hydroxyethoxy)-2,4,5-trimethylbenzyl}-N-methyl-2-(2-isopropyl-5-methylphenoxy)ethylamine] yielded a pA2 value of 7.6.

Compound `C=CCOc1c(C)c(C)c(OC(C)=O)c(C)c1CN(C)CCOc1cc(C)ccc1C(C)C` [Ex. 17, N-{3-acetoxy-6-(2-propenyloxy)-2,4,5-trimethylbenzyl}-N-methyl-2-(2-isopropyl-5-methylphenoxy)ethylamine] showed a pA2 value of 7.4. `CCN(CCOc1cc(C)c(Cl)cc1C(C)C)Cc1c(C)c(OC(C)=O)c(C)c(C)c1OC(C)C` [Ex. 18, N-(3-acetoxy-6-isopropoxy-2,4,5-trimethylbenzyl)-N-ethyl-2-(4-chloro-2-isopropyl-5-methylphenoxy)ethylamine] displayed a pA2 value of 7.2. The same measure, in the same setting: for `CCOc1c(C)c(C)c(O)c(CNCCOc2cc(C)ccc2C(C)C)c1C` [Ex. 19, N-(3-ethoxy-6-hydroxy-2,4,5-trimethylbenzyl)-2-(2-isopropyl-5-methylphenoxy)ethylamine] the value was 7.3; for `CCOc1c(C)c(C)c(OCc2ccccc2)c(CNCCOc2cc(C)ccc2C(C)C)c1C` [Ex. 20, N-(2-benzyloxy-5-ethoxy-3,4,6-trimethylbenzyl)-2-(2-isopropyl-5-methylphenoxy)ethylamine], 7.2.

As for `COc1c(C)c(C)c(O)c(C)c1CNCCOc1cc(C)c(O)cc1C(C)C` [Ex. 21, N-(3-hydroxy-6-methoxy-2,4,5-trimethylbenzyl)-2-(4-hydroxy-2-isopropyl-5-methylphenoxy)ethylamine], the pA2 value turned out to be 9.8. `COc1c(C)c(C)c(O)c(C)c1CN(CCOc1cc(C)c(O)cc1C(C)C)C(C)C` [Ex. 22, N-(3-hydroxy-6-methoxy-2,4,5-trimethylbenzyl)-N-isopropyl-2-(4-hydroxy-2-isopropyl-5-methylphenoxy)ethylamine] yielded a pA2 value of 7.5. For `COCCN(CCOc1cc(C)c(O)cc1C(C)C)Cc1c(C)c(O)c(C)c(C)c1OC` [Ex. 23, N-(3-hydroxy-6-methoxy-2,4,5-trimethylbenzyl)-N-(2-methoxyethyl)-2-(4-hydroxy-2-isopropyl-5-methylphenoxy)ethylamine], the pA2 value came out at 7.6. In turn, `CCCOc1c(C)c(C)c(O)c(C)c1CN(C)CCOc1cc(C)c(O)cc1C(C)C` [Ex. 24, N-(3-hydroxy-6-propoxy-2,4,5-trimethylbenzyl)-N-methyl-2-(4-hydroxy-2-isopropyl-5-methylphenoxy)ethylamine] showed a pA2 value of 8.3.

In the case of `CCCCOc1c(C)c(C)c(O)c(C)c1CN(C)CCOc1cc(C)c(O)cc1C(C)C` [Ex. 26, N-(2-butoxy-5-hydroxy-3,4,6-trimethylbenzyl)-N-methyl-2-(4-hydroxy-2-isopropyl-5-methylphenoxy)ethylamine], the pA2 value is given as 8.3.

Turning to `CC(=O)Oc1c(C)c(C)c(O)c(CN(C)CCOc2cc(C)c(O)cc2C(C)C)c1C` [Ex. 27, N-(3-acetoxy-6-hydroxy-2,4,5-trimethylbenzyl)-N-methyl-2-(4-hydroxy-2-isopropyl-5-methylphenoxy)ethylamine], the pA2 value amounted to 8.1. For `COc1c(C)c(C)c(OC)c(CN(C)CCOc2cc(C)c(O)cc2C(C)C)c1C` [Ex. 28, N-(2,5-dimethoxy-3,4,6-trimethylbenzyl)-N-methyl-2-(4-hydroxy-2-isopropyl-5-methylphenoxy)ethylamine], the pA2 value came out at 9.0. `COCCOc1c(C)c(C)c(O)c(C)c1CN(C)CCOc1cc(C)c(O)cc1C(C)C` [Ex. 29, N-{3-hydroxy-6-(2-methoxyethoxy)-2,4,5-trimethylbenzyl}-N-methyl-2-(4-hydroxy-2-isopropyl-5-methylphenoxy)ethylamine] showed a pA2 value of 8.2. Take `CCOc1c(C)c(C)c(O)c(C)c1CN(CCOc1cc(C)c(O)cc1C(C)C)C(C)C` [Ex. 30, N-(2-ethoxy-5-hydroxy-3,4,6-trimethylbenzyl)-N-isopropyl-2-(4-hydroxy-2-isopropyl-5-methylphenoxy)ethylamine]: the pA2 value was 7.2. In turn, `CCN(CCOc1cc(C)c(O)cc1C(C)C)Cc1c(C)c(O)c(C)c(C)c1OC` [Ex. 31, N-ethyl-N-(3-hydroxy-6-methoxy-2,4,5-trimethylbenzyl)-2-(4-hydroxy-2-isopropyl-5-methylphenoxy)ethylamine] returned a pA2 value of 8.6. In turn, `COc1cc(C(C)C)c(OCCN(C)Cc2c(C)c(OC)c(C)c(C)c2OC)cc1C` [Ex. 32, N-(2,5-dimethoxy-3,4,6-trimethylbenzyl)-N-methyl-2-(2-isopropyl-4-methoxy-5-methylphenoxy)ethylamine] registered a pA2 value of 7.2. Same read-out and setting: the figure for `CC(=O)Oc1cc(C(C)C)c(OCCN(C)C)cc1C` [moxisylyte hydrochloride, reference compound] is 7.6; for `COc1cc2nc(N3CCN(C(=O)c4ccco4)CC3)nc(N)c2cc1OC` [prazosin hydrochloride, reference compound] it is 8.6.

Another data set has as its system rabbit. The data set is described as follows: Orthostatic hypotensive effect, tilting of unanesthetized rabbit, orthostatic index (O.I.). The data set is classed as in vivo. To be noted: iv, tilted 90°, without anesthetization. From the text: Orthostatic hypotensive effect
The orthostatic hypotensive effect was examined by the following method which is in accordance with the method of Journal of Pharmacological Methods, vol. 5, p. 53 (1981). A rabbit was fixed at the dorsal position without anesthetization on an orthostatic hypotension measurement apparatus. Polyethylene catheters were inserted in right femoral artery and right femoral vein, and the catheter inserted in the artery was connected to a pressure transducer. The head of the rabbit was tilted rapidly at an angle of 90° from the horizontal position at 15 min intervals with the heart position as a rotational axis, and brought back to the horizontal position one minute later. The tilting was repeated three times, and after confirmation of occurrence of a constant response, a drug was administered from the polyethylene catheter inserted in the vein. […] [formula] (2) Test results
Regarding `COc1c(C)c(C)c(O)c(C)c1CN(C)CCOc1cc(C)c(O)cc1C(C)C` [Ex. 1, N-(3-hydroxy-6-methoxy-2,4,5-trimethylbenzyl)-N-methyl-2-(4-hydroxy-2-isopropyl-5-methylphenoxy)ethylamine], the “Dose necessary for O.I. value to achieve 90%” value was 56.4 μg/kg, iv. As to `CCOc1c(C)c(C)c(O)c(C)c1CN(C)CCOc1cc(C)c(O)cc1C(C)C` [Ex. 4, N-(2-ethoxy-5-hydroxy-3,4,6-trimethylbenzyl)-N-methyl-2-(4-hydroxy-2-isopropyl-5-methylphenoxy)ethylamine], the “Dose necessary for O.I. value to achieve 90%” value is 61.3 μg/kg, iv.

Take `COc1c(C)c(C)c(O)c(C)c1CNCCOc1cc(C)c(O)cc1C(C)C` [Ex. 21, N-(3-hydroxy-6-methoxy-2,4,5-trimethylbenzyl)-2-(4-hydroxy-2-isopropyl-5-methylphenoxy)ethylamine]: the “Dose necessary for O.I. value to achieve 90%” value was 32.8 μg/kg, iv.

Take `COc1c(C)c(C)c(OC)c(CN(C)CCOc2cc(C)c(O)cc2C(C)C)c1C` [Ex. 28, N-(2,5-dimethoxy-3,4,6-trimethylbenzyl)-N-methyl-2-(4-hydroxy-2-isopropyl-5-methylphenoxy)ethylamine]: the “Dose necessary for O.I. value to achieve 90%” value is on record as 40.3 μg/kg, iv. Turning to `COc1cc2nc(N3CCN(C(=O)c4ccco4)CC3)nc(N)c2cc1OC` [prazosin hydrochloride, reference compound], the “Dose necessary for O.I. value to achieve 90%” value is listed as 5.6 μg/kg, iv.
